Data: patent US10800791B2, “Triazole ACC inhibitors and uses thereof” (Gilead Apollo, LLC, priority 2015, dated 2020)
pIC50: −log10 of the molar value. In brackets after ≈: the same amount, converted by molar mass. Where two headings read alike, the source gives them in different places.

Experiments:
[1] = test system: C. albicans; assay: Antifungal Activity Assay (broth microtiter MIC), C. albicans; type: cell-based, Candida albicans; conditions: Candida albicans, ATCC90028, 48 h
Method in brief: (§1)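 Endpoint: lowest concentration visibly inhibiting growth relative to control after 48 h. Inoculum of 2.5×10^3 CFU/mL final in RPMI 1640+MOPS, prepared from overnight 35° C agar cultures; test compounds diluted in water to 128 μg/mL before plating.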

[2] = test system: C. parapsilosis; assay: Antifungal Activity Assay (broth microtiter MIC), C. parapsilosis; type: cell-based, Candida parapsilosis; conditions: Lodderomyces parapsilosis, ATCC22019, 48 h
Method in brief: as §1

[3] = test system: C. krusei; assay: Antifungal Activity Assay (broth microtiter MIC), C. krusei; type: cell-based, Candida krusei; conditions: Pichia kudriavzevii, ATCC6258, 48 h
Method in brief: as §1

[4] = biological target: fungal (fACC2) (UniProt Q00955); conditions: read-out: fACC2 (in vitro ACC2 Inhibition Assay, IC50), ADP-Glo, 5 nM ACC2, 20 μM ATP, 20 μM acetyl-CoA
Sequence of fungal (fACC2) (Q00955 whole entry): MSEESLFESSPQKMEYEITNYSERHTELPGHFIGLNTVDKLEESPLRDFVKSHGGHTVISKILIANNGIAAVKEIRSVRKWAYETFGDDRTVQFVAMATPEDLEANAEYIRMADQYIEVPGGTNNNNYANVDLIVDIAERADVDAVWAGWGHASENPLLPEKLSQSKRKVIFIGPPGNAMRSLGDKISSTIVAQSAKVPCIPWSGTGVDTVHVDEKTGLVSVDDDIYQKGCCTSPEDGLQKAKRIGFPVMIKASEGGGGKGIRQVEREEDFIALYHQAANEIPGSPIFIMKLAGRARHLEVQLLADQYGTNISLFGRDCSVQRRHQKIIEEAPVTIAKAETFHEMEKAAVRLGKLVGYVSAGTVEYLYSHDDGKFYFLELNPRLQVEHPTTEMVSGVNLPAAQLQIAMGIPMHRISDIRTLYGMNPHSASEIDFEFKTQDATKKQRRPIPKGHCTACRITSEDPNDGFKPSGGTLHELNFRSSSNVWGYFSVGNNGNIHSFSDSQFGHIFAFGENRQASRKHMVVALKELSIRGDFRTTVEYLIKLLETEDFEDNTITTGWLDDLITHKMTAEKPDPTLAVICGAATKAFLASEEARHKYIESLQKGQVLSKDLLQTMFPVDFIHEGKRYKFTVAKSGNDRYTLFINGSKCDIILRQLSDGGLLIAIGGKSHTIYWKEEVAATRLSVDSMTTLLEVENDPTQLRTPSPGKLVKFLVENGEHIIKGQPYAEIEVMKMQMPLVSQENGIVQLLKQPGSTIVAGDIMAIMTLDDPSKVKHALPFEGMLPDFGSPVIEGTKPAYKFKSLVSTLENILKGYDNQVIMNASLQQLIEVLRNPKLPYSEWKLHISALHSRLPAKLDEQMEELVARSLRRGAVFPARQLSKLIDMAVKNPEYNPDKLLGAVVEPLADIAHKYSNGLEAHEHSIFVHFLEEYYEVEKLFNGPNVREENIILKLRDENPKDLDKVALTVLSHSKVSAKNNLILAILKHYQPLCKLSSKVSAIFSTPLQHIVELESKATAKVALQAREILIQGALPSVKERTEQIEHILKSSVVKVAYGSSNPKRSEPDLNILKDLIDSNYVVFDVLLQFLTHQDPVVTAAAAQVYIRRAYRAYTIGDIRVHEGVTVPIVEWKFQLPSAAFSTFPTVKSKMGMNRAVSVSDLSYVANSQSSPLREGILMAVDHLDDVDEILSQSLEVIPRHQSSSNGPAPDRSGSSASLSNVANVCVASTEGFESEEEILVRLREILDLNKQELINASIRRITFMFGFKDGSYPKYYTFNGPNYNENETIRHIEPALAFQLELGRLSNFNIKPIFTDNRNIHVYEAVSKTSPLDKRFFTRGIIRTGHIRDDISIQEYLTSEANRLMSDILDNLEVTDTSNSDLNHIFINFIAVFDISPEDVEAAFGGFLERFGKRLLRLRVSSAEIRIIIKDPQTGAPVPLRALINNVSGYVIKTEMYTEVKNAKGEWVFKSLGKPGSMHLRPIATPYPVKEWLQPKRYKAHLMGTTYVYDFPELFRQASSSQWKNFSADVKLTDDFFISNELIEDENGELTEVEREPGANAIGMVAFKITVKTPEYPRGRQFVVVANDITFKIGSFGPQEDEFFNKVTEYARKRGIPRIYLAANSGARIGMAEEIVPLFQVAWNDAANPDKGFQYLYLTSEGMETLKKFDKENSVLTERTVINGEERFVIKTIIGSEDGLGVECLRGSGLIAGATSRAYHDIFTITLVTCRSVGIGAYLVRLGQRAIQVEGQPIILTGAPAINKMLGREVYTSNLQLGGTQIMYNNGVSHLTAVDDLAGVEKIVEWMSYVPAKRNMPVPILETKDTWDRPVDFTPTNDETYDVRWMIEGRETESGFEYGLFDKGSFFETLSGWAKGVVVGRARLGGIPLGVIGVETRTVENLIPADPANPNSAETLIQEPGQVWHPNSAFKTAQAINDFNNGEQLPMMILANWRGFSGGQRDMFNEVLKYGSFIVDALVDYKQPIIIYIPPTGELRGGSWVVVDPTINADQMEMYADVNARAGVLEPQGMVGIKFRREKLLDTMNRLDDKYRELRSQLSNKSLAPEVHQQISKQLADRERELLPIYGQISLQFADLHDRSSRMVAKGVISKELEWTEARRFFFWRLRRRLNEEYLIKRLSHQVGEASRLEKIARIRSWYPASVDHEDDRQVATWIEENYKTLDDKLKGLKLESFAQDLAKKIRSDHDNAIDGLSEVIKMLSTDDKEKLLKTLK

[5] = biological target: human (hACC2) (Homo sapiens, UniProt O00763); assay: In vitro ACC inhibition assay (ADP-Glo), hACC2; type: biochemical; conditions: 5 nM ACC2, 20 μM ATP, 20 μM acetyl-CoA
Sequence of human (hACC2) (O00763 whole entry): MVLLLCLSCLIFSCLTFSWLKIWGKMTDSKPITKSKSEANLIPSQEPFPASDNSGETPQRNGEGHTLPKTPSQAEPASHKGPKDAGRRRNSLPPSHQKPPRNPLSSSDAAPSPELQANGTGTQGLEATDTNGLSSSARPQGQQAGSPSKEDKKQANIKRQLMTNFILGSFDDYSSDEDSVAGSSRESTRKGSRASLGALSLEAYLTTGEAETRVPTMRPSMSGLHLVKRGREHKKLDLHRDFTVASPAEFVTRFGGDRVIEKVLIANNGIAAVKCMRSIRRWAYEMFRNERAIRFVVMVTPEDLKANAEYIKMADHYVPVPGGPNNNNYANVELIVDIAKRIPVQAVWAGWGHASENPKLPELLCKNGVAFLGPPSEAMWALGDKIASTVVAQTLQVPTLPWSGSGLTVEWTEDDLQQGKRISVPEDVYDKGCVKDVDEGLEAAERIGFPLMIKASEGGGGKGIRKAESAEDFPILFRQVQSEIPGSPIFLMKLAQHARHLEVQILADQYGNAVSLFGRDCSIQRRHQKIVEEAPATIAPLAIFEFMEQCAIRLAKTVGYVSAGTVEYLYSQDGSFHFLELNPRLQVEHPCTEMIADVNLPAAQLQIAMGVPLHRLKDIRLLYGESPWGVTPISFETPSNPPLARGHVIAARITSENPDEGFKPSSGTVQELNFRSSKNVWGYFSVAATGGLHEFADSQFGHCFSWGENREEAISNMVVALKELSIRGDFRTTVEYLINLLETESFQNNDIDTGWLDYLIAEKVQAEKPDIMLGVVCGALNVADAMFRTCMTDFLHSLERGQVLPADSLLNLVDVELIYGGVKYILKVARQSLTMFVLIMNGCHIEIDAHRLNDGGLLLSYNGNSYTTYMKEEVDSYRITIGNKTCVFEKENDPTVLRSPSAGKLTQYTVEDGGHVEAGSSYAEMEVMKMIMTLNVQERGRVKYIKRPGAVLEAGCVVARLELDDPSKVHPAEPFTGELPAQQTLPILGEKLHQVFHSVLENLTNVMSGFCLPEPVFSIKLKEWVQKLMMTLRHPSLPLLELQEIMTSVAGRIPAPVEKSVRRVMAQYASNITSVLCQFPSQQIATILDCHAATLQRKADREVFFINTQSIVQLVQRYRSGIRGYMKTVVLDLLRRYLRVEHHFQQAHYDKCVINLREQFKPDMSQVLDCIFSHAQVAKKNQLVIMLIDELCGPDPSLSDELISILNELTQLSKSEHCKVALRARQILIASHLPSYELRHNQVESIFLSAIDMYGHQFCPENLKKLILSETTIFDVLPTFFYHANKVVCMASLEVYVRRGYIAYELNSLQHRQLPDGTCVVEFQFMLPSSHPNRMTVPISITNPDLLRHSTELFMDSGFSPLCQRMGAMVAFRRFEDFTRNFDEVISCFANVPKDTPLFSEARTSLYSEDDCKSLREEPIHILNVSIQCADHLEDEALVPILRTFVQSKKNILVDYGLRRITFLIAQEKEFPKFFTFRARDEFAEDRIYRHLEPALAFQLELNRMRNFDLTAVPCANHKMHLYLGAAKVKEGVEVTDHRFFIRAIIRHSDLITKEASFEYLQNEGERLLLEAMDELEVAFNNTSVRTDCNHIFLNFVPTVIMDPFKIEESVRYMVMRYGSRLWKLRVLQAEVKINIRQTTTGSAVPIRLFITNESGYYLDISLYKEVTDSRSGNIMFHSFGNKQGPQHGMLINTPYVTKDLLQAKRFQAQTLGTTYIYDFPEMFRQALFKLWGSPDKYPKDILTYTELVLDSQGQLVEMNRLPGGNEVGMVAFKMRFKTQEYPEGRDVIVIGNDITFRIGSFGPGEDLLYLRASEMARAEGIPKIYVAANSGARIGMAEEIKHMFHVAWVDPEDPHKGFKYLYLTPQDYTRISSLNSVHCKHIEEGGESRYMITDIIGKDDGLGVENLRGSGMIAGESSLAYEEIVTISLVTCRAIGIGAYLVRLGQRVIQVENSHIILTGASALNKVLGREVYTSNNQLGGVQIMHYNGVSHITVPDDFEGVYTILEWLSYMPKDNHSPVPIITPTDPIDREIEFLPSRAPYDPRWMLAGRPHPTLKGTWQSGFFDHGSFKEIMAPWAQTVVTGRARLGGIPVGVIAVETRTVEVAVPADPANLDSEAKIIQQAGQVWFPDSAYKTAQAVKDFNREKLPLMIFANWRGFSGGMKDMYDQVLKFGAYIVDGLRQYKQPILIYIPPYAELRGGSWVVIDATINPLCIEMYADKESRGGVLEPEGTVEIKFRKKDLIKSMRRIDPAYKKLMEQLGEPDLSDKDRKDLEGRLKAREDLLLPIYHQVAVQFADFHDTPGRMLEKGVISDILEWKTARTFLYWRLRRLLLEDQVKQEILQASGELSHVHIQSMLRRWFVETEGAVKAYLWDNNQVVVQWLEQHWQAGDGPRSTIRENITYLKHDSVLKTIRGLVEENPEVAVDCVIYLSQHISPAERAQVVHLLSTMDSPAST
Experimental: The detailed procedure is as follows. […] 10 μL ADP glo reagent was added. […] 20 μL kinase detection reagent was added.

[6] = Table 3a, ATCC 90028, 3 replicates, MIC recorded at 48 h, read-out: MIC, C. albicans ATCC 90028
[7] = Table 3b (additional results), ATCC 90028, 3 replicates, MIC recorded at 48 h, read-out: MIC, C. albicans ATCC 90028
[8] = Table 3a, ATCC 22019, 3 replicates, MIC recorded at 48 h, read-out: MIC, C. parapsilosis ATCC 22019
[9] = Table 3b (additional results), ATCC 22019, 3 replicates, MIC recorded at 48 h, read-out: MIC, C. parapsilosis ATCC 22019
[10] = Table 3a, ATCC 6258, 3 replicates, MIC recorded at 48 h, read-out: MIC, C. krusei ATCC 6258
[11] = Table 3b (additional results), ATCC 6258, 3 replicates, MIC recorded at 48 h, read-out: MIC, C. krusei ATCC 6258
[12] = read-out: MIC, C. albicans ATCC 90028, Table 3b (additional results), 3 replicates, MIC recorded at 48 h
[13] = read-out: MIC, C. parapsilosis ATCC 22019, Table 3b (additional results), 3 replicates, MIC recorded at 48 h
[14] = read-out: MIC, C. krusei ATCC 6258, Table 3b (additional results), 3 replicates, MIC recorded at 48 h

## COc1ccc(F)cc1[C@H](Cn1c(=O)n(C(C)(C)C(=O)O)c(=O)c2c(C)c(-n3nccn3)sc21)OC[C@@H](C)C#N [Compound I-147]
[1]; [6]
  MIC: 2.1 to 4 µg/mL (≈ 3.68 to 7.01 µM)
[1]; [7]
  MIC: 2.01 to 4 µg/mL (≈ 3.52 to 7.01 µM)
[2]; [8]
  MIC: 2.1 to 4 µg/mL (≈ 3.68 to 7.01 µM)
[2]; [9]
  MIC: > 4.01 µg/mL
[3]; [10]
  MIC: 2.1 to 4 µg/mL (≈ 3.68 to 7.01 µM)
[3]; [11]
  MIC: > 4.01 µg/mL
[4]; Table 2a
  pIC50: 8.30 to 9.00
[4]; Table 2b, additional results
  pIC50: 8.30 to 9.00
[5]; Table 2a
  pIC50: 8.00 to 8.30
[5]; Table 2b, additional results
  pIC50: 8.00 to 8.30

## COc1ccc(F)cc1[C@H](Cn1c(=O)n(C(C)(C)C(=O)O)c(=O)c2c(C)c(-n3nccn3)sc21)OC[C@H](C)C#N [Compound I-148]
[1]; [6]
  MIC: 2.1 to 4 µg/mL (≈ 3.68 to 7.01 µM)
[1]; [7]
  MIC: 2.01 to 4 µg/mL (≈ 3.52 to 7.01 µM)
[2]; [8]
  MIC: 2.1 to 4 µg/mL (≈ 3.68 to 7.01 µM)
[2]; [9]
  MIC: > 4.01 µg/mL
[3]; [10]
  MIC: 2.1 to 4 µg/mL (≈ 3.68 to 7.01 µM)
[3]; [11]
  MIC: > 4.01 µg/mL
[4]; Table 2a
  pIC50: 8.30 to 9.00
[4]; Table 2b, additional results
  pIC50: 8.30 to 9.00
[5]; Table 2a
  pIC50: 8.30 to 9.00
[5]; Table 2b, additional results
  pIC50: 8.30 to 9.00

## COc1ccc(F)cc1[C@H](Cn1c(=O)n(C(C)(C)C(=O)O)c(=O)c2c(C)c(-n3nccn3)sc21)OCC(C)(C)C#N [Compound I-149, 2-[1-[(2R)-2-(2-cyano-2,2-dimethylethoxy)-2-(5-fluoro-2-methoxyphenyl)ethyl]-5-methyl-2,4-dioxo-6-(2H-1,2,3-triazol-2-yl)-1H,2H,3H,4H-thieno[2,3-d]pyrimidin-3-yl]-2-methylpropanoic acid]
[1]; [6]
  MIC: 2.1 to 4 µg/mL (≈ 3.59 to 6.84 µM)
[1]; [7]
  MIC: 1.01 to 2 µg/mL (≈ 1.73 to 3.42 µM)
[2]; [8]
  MIC: 2.1 to 4 µg/mL (≈ 3.59 to 6.84 µM)
[2]; [9]
  MIC: > 4.01 µg/mL
[3]; [10]
  MIC: 2.1 to 4 µg/mL (≈ 3.59 to 6.84 µM)
[3]; [11]
  MIC: > 4.01 µg/mL
[4]; Table 2a
  pIC50: 8.30 to 9.00
[4]; Table 2b, additional results
  pIC50: 8.30 to 9.00
[5]; Table 2a
  pIC50: 8.30 to 9.00
[5]; Table 2b, additional results
  pIC50: 8.30 to 9.00

## COc1ccc(F)cc1[C@H](Cn1c(=O)n(C(C)(C)C(N)=O)c(=O)c2c(C)c(-n3nccn3)sc21)OC[C@@H](C)C#N [Compound I-152]
[1]; [6]
  MIC: 2.1 to 4 µg/mL (≈ 3.69 to 7.02 µM)
[1]; [7]
  MIC: 1.01 to 2 µg/mL (≈ 1.77 to 3.51 µM)
[2]; [8]
  MIC: 2.1 to 4 µg/mL (≈ 3.69 to 7.02 µM)
[2]; [9]
  MIC: > 4.01 µg/mL
[3]; [10]
  MIC: 2.1 to 4 µg/mL (≈ 3.69 to 7.02 µM)
[3]; [11]
  MIC: 2.01 to 4 µg/mL (≈ 3.53 to 7.02 µM)
[4]; Table 2a
  pIC50: 9.00 to 9.40
[4]; Table 2b, additional results
  pIC50: 9.00 to 9.52
[5]; Table 2a
  pIC50: 8.30 to 9.00
[5]; Table 2b, additional results
  pIC50: 8.30 to 9.00

## COc1ccc(F)cc1[C@H](Cn1c(=O)n(C(C)(C)C(N)=O)c(=O)c2c(C)c(-n3nccn3)sc21)OC[C@H](C)C#N [Compound I-153]
[1]; [6]
  MIC: 2.1 to 4 µg/mL (≈ 3.69 to 7.02 µM)
[1]; [7]
  MIC: 1.01 to 2 µg/mL (≈ 1.77 to 3.51 µM)
[2]; [8]
  MIC: 2.1 to 4 µg/mL (≈ 3.69 to 7.02 µM)
[2]; [9]
  MIC: > 4.01 µg/mL
[3]; [10]
  MIC: 2.1 to 4 µg/mL (≈ 3.69 to 7.02 µM)
[3]; [11]
  MIC: 2.01 to 4 µg/mL (≈ 3.53 to 7.02 µM)
[4]; Table 2a
  pIC50: 9.00 to 9.40
[4]; Table 2b, additional results
  pIC50: 9.00 to 9.52
[5]; Table 2a
  pIC50: 8.30 to 9.00
[5]; Table 2b, additional results
  pIC50: 8.30 to 9.00

## COc1ccc(F)cc1[C@H](Cn1c(=O)n(C(C)(C)C(N)=O)c(=O)c2c(C)c(-n3nccn3)sc21)OCC(C)(C)C#N [Compound I-155]
[1]; [6]
  MIC: 0.25 to 1 µg/mL (≈ 0.428 to 1.71 µM)
[1]; [7]
  MIC: 1.01 to 2 µg/mL (≈ 1.73 to 3.43 µM)
[2]; [8]
  MIC: 2.1 to 4 µg/mL (≈ 3.6 to 6.85 µM)
[2]; [9]
  MIC: > 4.01 µg/mL
[3]; [10]
  MIC: 1.1 to 2 µg/mL (≈ 1.88 to 3.43 µM)
[3]; [11]
  MIC: 2.01 to 4 µg/mL (≈ 3.44 to 6.85 µM)
[4]; Table 2a
  pIC50: 8.30 to 9.00
[4]; Table 2b, additional results
  pIC50: 8.30 to 9.00
[5]; Table 2a
  pIC50: 8.00 to 8.30
[5]; Table 2b, additional results
  pIC50: 8.00 to 8.30

## COc1ccc(F)cc1[C@H](Cn1c(=O)n(C(C)(C)C(=O)O)c(=O)c2c(C)c(-n3nccn3)sc21)O[C@H]1CC[C@@H](C#N)CC1 [Compound I-156]
[1]; [12]
  MIC: 1.01 to 2 µg/mL (≈ 1.65 to 3.28 µM)
[2]; [13]
  MIC: 2.01 to 4 µg/mL (≈ 3.29 to 6.55 µM)
[3]; [14]
  MIC: 1.01 to 2 µg/mL (≈ 1.65 to 3.28 µM)
[4]; Table 2a
  pIC50: 9.00 to 9.40
[4]; Table 2b, additional results
  pIC50: 9.00 to 9.52
[5]; Table 2a
  pIC50: 7.40 to 8.00
[5]; Table 2b, additional results
  pIC50: 7.40 to 8.00

## COc1ccc(F)cc1[C@H](Cn1c(=O)n(C(C)(C)C(=O)O)c(=O)c2c(C)c(-n3nccn3)sc21)O[C@H]1CC[C@H](C#N)CC1 [Compound I-157]
[1]; [7]
  MIC: 1.01 to 2 µg/mL (≈ 1.65 to 3.28 µM)
[2]; [9]
  MIC: 2.01 to 4 µg/mL (≈ 3.29 to 6.55 µM)
[3]; [11]
  MIC: 1.01 to 2 µg/mL (≈ 1.65 to 3.28 µM)
[4]; Table 2a
  pIC50: 8.30 to 9.00
[4]; Table 2b, additional results
  pIC50: 8.30 to 9.00
[5]; Table 2a
  pIC50: 8.00 to 8.30
[5]; Table 2b, additional results
  pIC50: 8.00 to 8.30

## COc1ccc(F)cc1[C@H](Cn1c(=O)n(C(C)(C)C(=O)NC(C)C)c(=O)c2c(C)c(-n3nccn3)sc21)O[C@H]1CC[C@@H](C#N)CC1 [Compound I-158]
[1]; read-out: MIC, C. albicans ATCC 90028, Table 3a, 3 replicates, MIC recorded at 48 h
  MIC: 0.25 to 1 µg/mL (≈ 0.384 to 1.53 µM)
[1]; [12]
  MIC: 0.25 to 1 µg/mL (≈ 0.384 to 1.53 µM)
[2]; read-out: MIC, C. parapsilosis ATCC 22019, Table 3a, 3 replicates, MIC recorded at 48 h
  MIC: 1.1 to 2 µg/mL (≈ 1.69 to 3.07 µM)
[2]; [13]
  MIC: 0.25 to 1 µg/mL (≈ 0.384 to 1.53 µM)
[3]; read-out: MIC, C. krusei ATCC 6258, Table 3a, 3 replicates, MIC recorded at 48 h
  MIC: 0.25 to 1 µg/mL (≈ 0.384 to 1.53 µM)
[3]; [14]
  MIC: 0.06 to 0.249 µg/mL (≈ 0.0921 to 0.382 µM)
[4]; Table 2a
  pIC50: 8.30 to 9.00
[4]; Table 2b, additional results
  pIC50: 8.30 to 9.00
[5]; Table 2a
  pIC50: 7.40 to 8.00
[5]; Table 2b, additional results
  pIC50: 7.40 to 8.00
